Assay results published in ChEMBL document CHEMBL4507268 (2021).

How the values were obtained:
Conditions in all cases: Compound concentration 1.0 uM
[1] = biological target: Serine/threonine-protein kinase N2 (Homo sapiens) (UniProt Q16513)
[2] = biological target: Tyrosine-protein kinase ABL1 (Homo sapiens) (UniProt P00519)
[3] = biological target: Serine/threonine-protein kinase 25 (Homo sapiens) (UniProt O00506)
[4] = biological target: BDNF/NT-3 growth factors receptor (Homo sapiens) (UniProt Q16620)
[5] = biological target: T1, Dual specificity mitogen-activated protein kinase kinase 6 (Homo sapiens) (UniProt P52564)
T1 sequence (whole entry): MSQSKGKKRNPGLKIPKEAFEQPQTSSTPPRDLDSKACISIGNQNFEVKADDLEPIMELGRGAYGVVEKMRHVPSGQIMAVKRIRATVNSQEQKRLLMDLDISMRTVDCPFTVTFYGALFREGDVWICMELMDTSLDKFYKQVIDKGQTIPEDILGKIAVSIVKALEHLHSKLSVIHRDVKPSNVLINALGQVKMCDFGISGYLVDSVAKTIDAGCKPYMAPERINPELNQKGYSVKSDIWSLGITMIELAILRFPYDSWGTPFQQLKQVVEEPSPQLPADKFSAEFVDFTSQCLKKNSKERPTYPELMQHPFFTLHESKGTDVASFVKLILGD

[6] = biological target: Ephrin type-A receptor 4 (Homo sapiens) (UniProt P54764)
Chain of Ephrin type-A receptor 4 (Homo sapiens) (P54764 whole entry): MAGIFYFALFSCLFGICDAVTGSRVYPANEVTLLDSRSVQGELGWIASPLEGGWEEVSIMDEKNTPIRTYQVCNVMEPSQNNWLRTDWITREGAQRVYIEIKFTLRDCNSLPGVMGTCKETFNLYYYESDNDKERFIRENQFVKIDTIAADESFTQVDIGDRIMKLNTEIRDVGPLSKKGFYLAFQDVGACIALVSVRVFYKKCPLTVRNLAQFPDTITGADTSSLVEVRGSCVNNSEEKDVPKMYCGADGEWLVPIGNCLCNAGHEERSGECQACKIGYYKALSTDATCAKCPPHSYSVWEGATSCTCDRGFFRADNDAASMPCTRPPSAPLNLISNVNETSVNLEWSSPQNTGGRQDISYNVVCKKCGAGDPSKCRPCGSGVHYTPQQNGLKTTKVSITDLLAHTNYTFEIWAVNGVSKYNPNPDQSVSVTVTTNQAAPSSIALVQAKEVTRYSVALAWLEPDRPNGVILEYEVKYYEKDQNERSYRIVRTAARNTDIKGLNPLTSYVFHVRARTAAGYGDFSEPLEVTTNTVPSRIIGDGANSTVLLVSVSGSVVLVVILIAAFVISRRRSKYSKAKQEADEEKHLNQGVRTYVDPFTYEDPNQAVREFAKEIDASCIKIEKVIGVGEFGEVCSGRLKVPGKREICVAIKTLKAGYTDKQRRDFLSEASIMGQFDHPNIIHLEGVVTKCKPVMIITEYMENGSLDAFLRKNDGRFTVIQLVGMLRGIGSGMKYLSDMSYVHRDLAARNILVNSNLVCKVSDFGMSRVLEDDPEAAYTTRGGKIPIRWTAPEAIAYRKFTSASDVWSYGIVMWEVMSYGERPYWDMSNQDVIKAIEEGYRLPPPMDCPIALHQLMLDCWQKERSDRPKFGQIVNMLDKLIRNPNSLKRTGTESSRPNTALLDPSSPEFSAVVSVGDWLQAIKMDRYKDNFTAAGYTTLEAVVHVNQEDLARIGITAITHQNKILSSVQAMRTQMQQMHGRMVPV

[7] = biological target: Interferon-induced, double-stranded RNA-activated protein kinase (Homo sapiens) (UniProt P19525)
[8] = biological target: MAP kinase-activated protein kinase 3 (Homo sapiens) (UniProt Q16644)
Chain of MAP kinase-activated protein kinase 3 (Homo sapiens) (Q16644 whole entry, looked up): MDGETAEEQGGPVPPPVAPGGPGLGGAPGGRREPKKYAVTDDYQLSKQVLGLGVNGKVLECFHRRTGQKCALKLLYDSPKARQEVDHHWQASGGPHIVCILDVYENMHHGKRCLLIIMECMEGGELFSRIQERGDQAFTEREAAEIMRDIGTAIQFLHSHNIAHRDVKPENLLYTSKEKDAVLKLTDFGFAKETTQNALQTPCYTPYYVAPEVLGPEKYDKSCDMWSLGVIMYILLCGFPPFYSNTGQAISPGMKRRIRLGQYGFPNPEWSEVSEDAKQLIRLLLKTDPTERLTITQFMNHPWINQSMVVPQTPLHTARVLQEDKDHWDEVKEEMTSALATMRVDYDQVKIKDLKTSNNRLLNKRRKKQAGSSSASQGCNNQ

[9] = biological target: Serine/threonine-protein kinase SIK3 (Homo sapiens) (UniProt Q9Y2K2)
Chain of Serine/threonine-protein kinase SIK3 (Homo sapiens) (Q9Y2K2 whole entry, looked up): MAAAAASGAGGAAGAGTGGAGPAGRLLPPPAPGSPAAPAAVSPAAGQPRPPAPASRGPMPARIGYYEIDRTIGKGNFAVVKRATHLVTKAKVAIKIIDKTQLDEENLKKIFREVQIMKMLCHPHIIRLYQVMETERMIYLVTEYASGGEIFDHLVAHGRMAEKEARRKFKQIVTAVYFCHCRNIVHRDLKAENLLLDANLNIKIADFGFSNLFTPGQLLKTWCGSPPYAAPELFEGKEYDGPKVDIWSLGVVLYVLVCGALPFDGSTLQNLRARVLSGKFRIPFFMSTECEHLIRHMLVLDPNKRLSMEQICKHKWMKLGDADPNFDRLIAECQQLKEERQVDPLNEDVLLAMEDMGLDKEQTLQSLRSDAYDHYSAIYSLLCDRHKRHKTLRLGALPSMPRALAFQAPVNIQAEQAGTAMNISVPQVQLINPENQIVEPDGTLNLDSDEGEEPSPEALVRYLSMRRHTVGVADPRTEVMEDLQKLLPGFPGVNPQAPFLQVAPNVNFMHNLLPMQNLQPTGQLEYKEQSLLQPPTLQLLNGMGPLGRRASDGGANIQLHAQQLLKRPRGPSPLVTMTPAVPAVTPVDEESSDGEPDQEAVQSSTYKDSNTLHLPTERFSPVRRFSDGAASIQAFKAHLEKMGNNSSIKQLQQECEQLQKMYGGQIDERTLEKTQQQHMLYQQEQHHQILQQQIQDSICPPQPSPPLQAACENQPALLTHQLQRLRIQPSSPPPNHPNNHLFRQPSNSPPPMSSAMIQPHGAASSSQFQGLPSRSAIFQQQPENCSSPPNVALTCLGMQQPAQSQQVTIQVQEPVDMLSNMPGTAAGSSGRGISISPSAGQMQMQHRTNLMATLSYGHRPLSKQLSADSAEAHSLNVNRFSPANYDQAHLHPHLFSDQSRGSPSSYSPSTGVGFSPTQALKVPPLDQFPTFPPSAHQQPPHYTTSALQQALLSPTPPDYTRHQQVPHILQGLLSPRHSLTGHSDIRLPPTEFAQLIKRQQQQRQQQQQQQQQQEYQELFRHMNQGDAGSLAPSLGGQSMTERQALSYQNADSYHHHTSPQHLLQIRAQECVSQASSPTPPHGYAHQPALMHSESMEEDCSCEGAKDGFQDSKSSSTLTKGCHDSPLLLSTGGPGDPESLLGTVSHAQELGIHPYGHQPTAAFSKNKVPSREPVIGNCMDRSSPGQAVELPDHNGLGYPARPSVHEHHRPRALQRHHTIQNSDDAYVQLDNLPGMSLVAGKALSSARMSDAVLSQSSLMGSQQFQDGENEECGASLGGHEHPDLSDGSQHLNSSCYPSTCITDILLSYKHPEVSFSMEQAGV

[10] = biological target: T2, TGF-beta receptor type-1 (Homo sapiens) (UniProt P36897)
T2 sequence (whole entry): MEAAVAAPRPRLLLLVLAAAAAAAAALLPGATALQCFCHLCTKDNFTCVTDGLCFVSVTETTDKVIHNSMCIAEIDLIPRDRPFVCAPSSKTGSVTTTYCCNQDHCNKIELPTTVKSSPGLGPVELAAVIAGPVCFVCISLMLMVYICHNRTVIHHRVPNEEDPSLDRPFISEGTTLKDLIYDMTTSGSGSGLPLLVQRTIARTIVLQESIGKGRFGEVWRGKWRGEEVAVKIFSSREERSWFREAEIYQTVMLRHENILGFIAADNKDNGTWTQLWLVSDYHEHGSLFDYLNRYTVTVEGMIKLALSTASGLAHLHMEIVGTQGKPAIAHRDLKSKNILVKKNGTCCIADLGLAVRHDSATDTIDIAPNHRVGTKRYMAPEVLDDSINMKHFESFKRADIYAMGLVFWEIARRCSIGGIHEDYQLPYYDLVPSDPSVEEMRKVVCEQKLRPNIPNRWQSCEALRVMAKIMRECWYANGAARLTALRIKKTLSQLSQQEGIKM

[11] = biological target: T3, Aurora kinase A (Homo sapiens) (UniProt O14965)
T3 sequence (whole entry): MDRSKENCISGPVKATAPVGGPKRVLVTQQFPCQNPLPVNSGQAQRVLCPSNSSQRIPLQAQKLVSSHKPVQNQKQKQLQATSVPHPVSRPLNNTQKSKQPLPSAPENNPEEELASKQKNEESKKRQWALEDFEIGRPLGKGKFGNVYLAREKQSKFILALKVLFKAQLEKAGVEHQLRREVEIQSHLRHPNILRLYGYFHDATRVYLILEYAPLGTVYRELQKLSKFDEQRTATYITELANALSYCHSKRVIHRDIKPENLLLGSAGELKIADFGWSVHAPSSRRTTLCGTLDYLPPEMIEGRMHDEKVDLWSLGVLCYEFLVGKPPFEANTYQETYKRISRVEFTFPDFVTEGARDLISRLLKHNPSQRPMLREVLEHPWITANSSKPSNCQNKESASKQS

[12] = biological target: Dual specificity tyrosine-phosphorylation-regulated kinase 1A (Homo sapiens) (UniProt Q13627)
[13] = biological target: NT-3 growth factor receptor (Homo sapiens) (UniProt Q16288)
Chain of NT-3 growth factor receptor (Homo sapiens) (Q16288 32-839 limits assumed): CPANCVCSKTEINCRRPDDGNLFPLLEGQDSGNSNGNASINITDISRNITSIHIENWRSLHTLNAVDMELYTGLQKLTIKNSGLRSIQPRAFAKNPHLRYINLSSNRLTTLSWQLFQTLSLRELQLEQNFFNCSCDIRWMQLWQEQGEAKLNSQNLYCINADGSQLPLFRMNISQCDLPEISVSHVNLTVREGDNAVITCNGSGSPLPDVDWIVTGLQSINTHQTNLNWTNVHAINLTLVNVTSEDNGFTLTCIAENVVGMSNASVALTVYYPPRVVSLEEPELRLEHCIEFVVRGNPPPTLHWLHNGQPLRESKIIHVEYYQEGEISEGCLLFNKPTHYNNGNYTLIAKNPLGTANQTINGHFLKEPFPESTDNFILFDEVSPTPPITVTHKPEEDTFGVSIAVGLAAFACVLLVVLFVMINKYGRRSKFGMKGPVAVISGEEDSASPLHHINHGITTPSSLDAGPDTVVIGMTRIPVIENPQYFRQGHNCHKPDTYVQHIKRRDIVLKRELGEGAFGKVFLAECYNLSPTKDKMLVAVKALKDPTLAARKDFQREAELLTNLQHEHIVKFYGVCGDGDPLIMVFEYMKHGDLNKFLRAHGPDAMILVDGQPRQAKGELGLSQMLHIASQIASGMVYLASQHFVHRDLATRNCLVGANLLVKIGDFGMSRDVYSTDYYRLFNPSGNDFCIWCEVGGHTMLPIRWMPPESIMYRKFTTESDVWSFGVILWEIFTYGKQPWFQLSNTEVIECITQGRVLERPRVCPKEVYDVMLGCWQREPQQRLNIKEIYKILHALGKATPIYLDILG

[14] = biological target: Fibroblast growth factor receptor 2 (Homo sapiens) (UniProt P21802)
[15] = biological target: T4, Serine/threonine-protein kinase TAO3 (Homo sapiens) (UniProt Q9H2K8)
T4 sequence (whole entry): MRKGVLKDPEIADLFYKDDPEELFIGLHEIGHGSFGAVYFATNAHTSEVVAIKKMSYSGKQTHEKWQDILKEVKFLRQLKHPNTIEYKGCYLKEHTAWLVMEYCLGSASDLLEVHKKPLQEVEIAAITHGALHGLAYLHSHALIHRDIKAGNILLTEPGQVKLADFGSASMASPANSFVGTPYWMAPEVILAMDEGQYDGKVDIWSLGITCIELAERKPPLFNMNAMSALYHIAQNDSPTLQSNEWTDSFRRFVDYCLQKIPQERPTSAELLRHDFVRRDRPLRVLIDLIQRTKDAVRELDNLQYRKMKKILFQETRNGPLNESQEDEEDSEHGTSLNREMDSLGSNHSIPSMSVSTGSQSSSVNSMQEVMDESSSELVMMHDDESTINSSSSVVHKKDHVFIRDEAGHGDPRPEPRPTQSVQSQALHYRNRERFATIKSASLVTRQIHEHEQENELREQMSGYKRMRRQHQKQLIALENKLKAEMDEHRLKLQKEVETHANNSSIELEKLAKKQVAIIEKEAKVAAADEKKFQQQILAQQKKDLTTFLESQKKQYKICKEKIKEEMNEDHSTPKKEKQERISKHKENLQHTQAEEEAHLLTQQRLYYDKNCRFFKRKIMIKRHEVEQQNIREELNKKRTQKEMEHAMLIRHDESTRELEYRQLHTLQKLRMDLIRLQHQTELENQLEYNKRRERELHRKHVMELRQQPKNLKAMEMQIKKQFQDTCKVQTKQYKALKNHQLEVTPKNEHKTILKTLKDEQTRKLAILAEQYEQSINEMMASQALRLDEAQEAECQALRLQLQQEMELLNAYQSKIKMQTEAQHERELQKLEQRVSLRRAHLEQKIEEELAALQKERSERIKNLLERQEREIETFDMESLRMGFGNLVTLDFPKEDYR

[16] = biological target: Phosphatidylinositol 5-phosphate 4-kinase type-2 alpha (Homo sapiens) (UniProt P48426)
Chain of Phosphatidylinositol 5-phosphate 4-kinase type-2 alpha (Homo sapiens) (P48426 whole entry): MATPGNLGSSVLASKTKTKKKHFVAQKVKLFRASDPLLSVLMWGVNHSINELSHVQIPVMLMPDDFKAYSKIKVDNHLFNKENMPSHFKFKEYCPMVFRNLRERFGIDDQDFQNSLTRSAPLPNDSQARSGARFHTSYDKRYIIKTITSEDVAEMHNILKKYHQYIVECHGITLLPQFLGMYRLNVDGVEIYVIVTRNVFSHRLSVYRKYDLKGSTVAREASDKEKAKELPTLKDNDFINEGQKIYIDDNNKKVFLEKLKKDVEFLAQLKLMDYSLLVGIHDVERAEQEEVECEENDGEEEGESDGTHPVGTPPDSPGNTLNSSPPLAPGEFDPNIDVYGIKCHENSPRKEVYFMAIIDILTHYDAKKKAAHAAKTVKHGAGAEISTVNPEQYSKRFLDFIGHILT

Measured: % residual kinase activity

Chain of Serine/threonine-protein kinase N2 (Homo sapiens) (Q16513 whole entry, looked up): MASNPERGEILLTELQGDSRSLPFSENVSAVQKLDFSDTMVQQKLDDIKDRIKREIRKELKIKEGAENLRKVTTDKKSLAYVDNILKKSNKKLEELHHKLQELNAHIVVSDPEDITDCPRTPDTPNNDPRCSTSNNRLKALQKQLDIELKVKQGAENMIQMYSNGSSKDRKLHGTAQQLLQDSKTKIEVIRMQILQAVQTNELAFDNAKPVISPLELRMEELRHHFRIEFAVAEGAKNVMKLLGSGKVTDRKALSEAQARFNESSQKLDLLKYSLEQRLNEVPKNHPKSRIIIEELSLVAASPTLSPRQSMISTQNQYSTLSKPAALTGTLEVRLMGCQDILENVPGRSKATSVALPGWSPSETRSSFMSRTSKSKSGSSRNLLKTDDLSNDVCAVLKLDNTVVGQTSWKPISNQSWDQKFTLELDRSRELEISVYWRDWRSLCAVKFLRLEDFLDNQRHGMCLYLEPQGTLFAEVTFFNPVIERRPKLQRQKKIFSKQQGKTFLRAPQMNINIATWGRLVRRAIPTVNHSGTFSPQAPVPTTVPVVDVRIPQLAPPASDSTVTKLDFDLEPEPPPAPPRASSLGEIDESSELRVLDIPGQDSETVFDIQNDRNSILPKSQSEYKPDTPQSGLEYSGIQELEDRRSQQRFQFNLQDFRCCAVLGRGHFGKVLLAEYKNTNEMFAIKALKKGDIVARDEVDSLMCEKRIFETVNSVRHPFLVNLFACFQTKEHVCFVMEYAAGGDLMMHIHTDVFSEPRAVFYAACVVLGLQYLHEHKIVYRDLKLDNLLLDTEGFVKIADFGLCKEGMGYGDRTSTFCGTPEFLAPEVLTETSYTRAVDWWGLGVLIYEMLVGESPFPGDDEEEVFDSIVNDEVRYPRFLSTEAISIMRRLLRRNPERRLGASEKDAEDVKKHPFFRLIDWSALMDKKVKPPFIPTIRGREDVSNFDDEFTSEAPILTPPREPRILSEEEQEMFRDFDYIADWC

CN1CCN(c2cnc3c(C4CCN(C(=O)c5ccc(OC(F)(F)F)cc5N)CC4)ncnc3c2)CC1 [BAY-885]
inactive: [1] 104% | [2] 100% | [3] 87% | [4] 98% | [5] 99% | [6] 82% | [7] 115% | [8] 113% | [9] 96% | [10] 81% | [11] 109% | [12] 112% | [13] 123% | [14] 107% | [15] 110% | [16] 95%
